Measured values published in ChEMBL document CHEMBL6120962, “New Mitochondria-Targeted Fisetin Derivative Compromises Mitophagy and Limits Survival of Drug-Induced Senescent Breast Cancer Cells” (J Med Chem, 2024).
Calls of active or inactive are those of the source.

Columns and labels:
HCC1428 [1] = test: Induction of apoptosis in tamoxifen-induced senescent human HCC1428 cells assessed as increase in caspase 9 level incubated for 24 hrs by immunostaining based imaging cytometric analysis; type: functional, cell-based
HCC1500 [2] = test: Induction of apoptosis in tamoxifen-induced senescent human HCC1500 cells assessed as decrease in HSP90 level incubated for 24 hrs by immunostaining based imaging cytometric analysis; type: functional, cell-based
Mitochondrial membrane [3] = test: Induction of mitochondrial membrane potential depolarization in tamoxifen-induced senescent human MCF-10F cells assessed as increase in depolarized dead cell level at 1 to 5 uM incubated for 24 hrs by 7-AAD staining based flow cytometric analysis; type: cell membranes; conditions: dose 1-5 µM
MCF-10F [4] = test: Induction of mitochondrial dysfunction in tamoxifen-induced senescent human MCF-10F cells assessed as decrease in maximal respiration at 5 uM incubated for 6 hrs by real-time analysis; type: functional, cell-based
HCC1428 [5] = test: Induction of apoptosis in human HCC1428 cells assessed as decrease in Bcl2 level at 1 to 5 uM incubated for 24 hrs by Western blot analysis; type: functional, cell-based; conditions: dose 1-5 µM
ZR-75-30 [6] = test: Induction of apoptosis in human ZR-75-30 cells assessed as decrease in Bcl2 level at 1 to 5 uM incubated for 24 hrs by Western blot analysis; type: functional, cell-based; conditions: dose 1-5 µM
MCF-10F [7] = test: Induction of mitochondrial dysfunction in tamoxifen-induced senescent human MCF-10F cells assessed as decrease in coupling efficiency at 5 uM incubated for 6 hrs by real-time analysis; type: functional, cell-based
CAMA-1 = test: Induction of apoptosis in tamoxifen-induced senescent human CAMA-1 cells assessed as decrease in HSP90 level incubated for 24 hrs by immunostaining based imaging cytometric analysis; type: functional, cell-based
HCC1428 [8] = test: Induction of mitochondrial dysfunction in human HCC1428 cells assessed as decrease in coupling efficiency at 5 uM incubated for 6 hrs by real time analysis; type: functional, cell-based
HCC1428 [9] = test: Induction of apoptosis in tamoxifen-induced senescent human HCC1428 cells assessed as increase in caspase 3 level incubated for 24 hrs by immunostaining based imaging cytometric analysis; type: functional, cell-based
HCC1500 [10] = test: Anticancer activity against ER-positive human HCC1500 cells assessed as effect on metabolic activity upto 10 uM incubated for 24 hrs by MTT assay; type: functional, cell-based
MCF-10F [11] = test: Induction of mitochondrial dysfunction in human MCF-10F cells assessed as decrease in maximal respiration at 5 uM incubated for 6 hrs by real time analysis; type: functional, cell-based
HCC1428 [12] = test: Upregulation of BECN1 level in tamoxifen-induced senescent human HCC1428 cells at 1 to 5 uM by immunostaining based imaging cytometric analysis; type: functional, cell-based; conditions: dose 1-5 µM
MCF-10F [13] = test: Induction of mitochondrial dysfunction in human MCF-10F cells assessed as decrease in spare respiratory capacity at 5 uM incubated for 6 hrs by real time analysis; type: functional, cell-based
ZR-75-30 [14] = test: Induction of apoptosis in tamoxifen-induced senescent human ZR-75-30 cells assessed as increase in caspase 9 level incubated for 24 hrs by immunostaining based imaging cytometric analysis; type: functional, cell-based
MCF-10F [15] = test: Induction of apoptosis in human MCF-10F cells assessed as decrease in Bcl2 level at 1 to 5 uM incubated for 24 hrs by Western blot analysis; type: functional, cell-based; conditions: dose 1-5 µM
HCC1428 [16] = test: Induction of apoptosis in tamoxifen-induced senescent human HCC1428 cells assessed as phosphatidylserine externalization at 1 to 5 uM incubated for 24 hrs by Annexin V-FITC staining based flow cytometric analysis; type: functional, cell-based; conditions: dose 1-5 µM
HCC1428 [17] = test: Induction of apoptosis in tamoxifen-induced senescent human HCC1428 cells assessed as decrease in Bcl2 level at 5 uM incubated for 24 hrs by Western blot analysis; type: functional, cell-based
Mitochondrial membrane [18] = test: Induction of mitochondrial membrane potential depolarization in tamoxifen-induced senescent human HCC1428 cells assessed as increase in depolarized dead cell level at 1 to 5 uM incubated for 24 hrs by 7-AAD staining based flow cytometric analysis; type: cell membranes; conditions: dose 1-5 µM
[19] = Cytotoxicity against human MCF-10F cells assessed as effect on metabolic activity at 1 to 10 uM incubated for 24 hrs by MTT assay; type: toxicity, cell-based; conditions: dose 1-10 µM
HCC1500 [20] = test: Induction of oxidative stress in tamoxifen-induced senescent human HCC1500 cells assessed as increase in mitochondrial superoxide production at 1 to 5 uM incubated for 24 hrs by MitoSOX red superoxide indicator based fluorescence analysis; type: functional, cell-based; conditions: dose 1-5 µM
ZR-75-30 [21] = test: Induction of […] in human tamoxifen-induced senescent human ZR-75-30 cells at 1 to 5 uM by incubated for 24 hrs Annexin V-FITC staining based flow cytometric analysis; type: functional, cell-based; conditions: dose 1-5 µM
MCF-10F [22] = test: Induction of mitochondrial dysfunction in tamoxifen-induced senescent human MCF-10F cells assessed as decrease in ATP production at 5 uM incubated for 6 hrs by real-time analysis; type: functional, cell-based
HCC1428 [23] = test: Induction of mitochondrial dysfunction in tamoxifen-induced senescent human HCC1428 cells assessed as decrease in spare respiratory capacity at 5 uM incubated for 6 hrs by real-time analysis; type: functional, cell-based
HCC1428 [24] = test: Induction of mitochondrial dysfunction in human HCC1428 cells assessed as decrease in spare respiratory capacity at 5 uM incubated for 6 hrs by real time analysis; type: functional, cell-based
ZR-75-30 [25] = test: Induction of oxidative stress in tamoxifen-induced senescent human ZR-75-30 cells assessed as increase in cytosolic SOD1 level at 1 to 5 uM incubated for 24 hrs by MitoSOX red superoxide indicator based fluorescence analysis; type: functional, cell-based; conditions: dose 1-5 µM
MCF-10F [26] = test: Effect on Bcl-rambo protein level in tamoxifen-induced senescent human MCF-10F cells at 1 to 5 uM incubated for 24 hrs by Western blot analysis; type: functional, cell-based; conditions: dose 1-5 µM
MCF-10F [27] = test: Induction of mitochondrial dysfunction in tamoxifen-induced senescent human MCF-10F cells assessed as increase in proton leak at 5 uM incubated for 6 hrs by real-time analysis; type: functional, cell-based
[28] = molecular target: Receptor-interacting serine/threonine-protein kinase 3 (Homo sapiens) (UniProt Q9Y572); test: Induction of RIP3 phosphorylation in human HCC1428 cells at 1 to 5 uM incubated for 24 hrs by Western blot analysis; type: cell-based; conditions: dose 1-5 µM
Chain of Receptor-interacting serine/threonine-protein kinase 3 (Homo sapiens) (Q9Y572 whole entry, looked up): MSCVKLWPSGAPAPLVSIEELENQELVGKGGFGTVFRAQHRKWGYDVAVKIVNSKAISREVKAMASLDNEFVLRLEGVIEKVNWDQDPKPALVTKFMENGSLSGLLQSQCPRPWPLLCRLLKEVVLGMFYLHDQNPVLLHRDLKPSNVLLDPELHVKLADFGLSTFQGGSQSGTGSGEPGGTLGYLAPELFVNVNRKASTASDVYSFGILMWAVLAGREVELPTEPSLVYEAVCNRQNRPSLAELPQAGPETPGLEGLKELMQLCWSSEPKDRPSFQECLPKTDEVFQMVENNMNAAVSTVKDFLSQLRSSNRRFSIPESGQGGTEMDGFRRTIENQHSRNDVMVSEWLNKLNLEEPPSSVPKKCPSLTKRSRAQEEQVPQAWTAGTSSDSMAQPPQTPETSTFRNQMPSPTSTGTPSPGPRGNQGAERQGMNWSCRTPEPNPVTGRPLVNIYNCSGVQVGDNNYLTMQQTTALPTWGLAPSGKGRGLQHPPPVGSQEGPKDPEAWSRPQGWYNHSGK

MCF-10F [29] = test: Induction of apoptosis in human MCF-10F cells assessed as assessed as phosphatidylserine externalization at 1 to 5 uM incubated for 24 hrs by Annexin V-FITC staining based flow cytometric analysis; type: functional, cell-based; conditions: dose 1-5 µM
HCC1428 [30] = test: Induction of autophagy in tamoxifen-induced senescent human HCC1428 cells assessed as increase in ULK1 level at 1 to 5 uM by immunostaining based imaging cytometric analysis; type: functional, cell-based; conditions: dose 1-5 µM
MCF-10F [31] = test: Induction of apoptosis in tamoxifen-induced senescent human MCF-10F cells assessed as decrease in Bcl2 level at 1 to 5 uM incubated for 24 hrs by Western blot analysis; type: functional, cell-based; conditions: dose 1-5 µM
HCC1428 [32] = test: Effect on phosphorylated to unphosphorylated AKT ratio in tamoxifen-induced senescent human HCC1428 cells assessed as decrease in phosphorylated AKT level at 1 to 5 uM incubated for 24 hrs by Western blotting analysis; type: functional, cell-based; conditions: dose 1-5 µM
HCC1428 [33] = test: Induction of mitochondrial dysfunction in tamoxifen-induced senescent human HCC1428 cells assessed as increase in proton leak at 5 uM incubated for 6 hrs by real-time analysis; type: functional, cell-based
HCC1428 [34] = test: Induction of mitochondrial dysfunction in tamoxifen-induced senescent human HCC1428 cells assessed as decrease in ATP production at 5 uM incubated for 6 hrs by real-time analysis; type: functional, cell-based
HCC1428 [35] = test: Effect on Bcl-rambo protein level in tamoxifen-induced senescent human HCC1428 cells at 1 to 5 uM incubated for 24 hrs by Western blot analysis; type: functional, cell-based; conditions: dose 1-5 µM

Measured: Activity

CC(=O)Oc1ccc2c(=O)c(OCCCC[P+](c3ccccc3)(c3ccccc3)c3ccccc3)c(-c3ccc4c(c3)OC(c3ccccc3)(c3ccccc3)O4)oc2c1.[I-]
inactive: Mitochondrial membrane [3] | MCF-10F [4] | MCF-10F [7] | MCF-10F [11] | HCC1428 [12] | MCF-10F [13] | MCF-10F [15] | MCF-10F [22] | MCF-10F [26] | MCF-10F [27] | [28] | MCF-10F [29] | MCF-10F [31] | HCC1428 [32] | HCC1428 [35]
Non-toxic: [19]
active: all other assays above
